Reference: patent US20250320206A1, “STAT6 DEGRADERS” (Gilead Sciences, Inc., priority 2024, published 2025)

What was measured:
[1] = test system: Eotaxin-3 release in human whole blood stimulated with IL-4; experiment: Human Whole Blood Eotaxin-3 Assay (IL-4 stimulated eotaxin-3 release); assay type: cell-based; settings: IL-4 stimulation, 48 h, values given for compounds with >80% Emax, geometric mean
Method in brief: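 Eotaxin-3 (CCL26) release measured by MSD kit in plasma supernatant after 48 h IL-4 stimulation ([…]) of human whole blood. Compounds added in triplicate 4-fold dilutions 2 h before stimulation; 0.5% DMSO final, 37° C, 5% CO2.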

[2] = target: T1, STAT6 (Homo sapiens, UniProt P42226); experiment: Stat6 Degrader Assay (HiBiT based, HeLa LgBiT clone 4.14); assay type: cell-based; settings: HeLa LgBiT clone 4.14 HiBiT-STAT6, 4-24 h incubation; values given for compounds with >80% Emax; geometric mean; read-out: STAT6 degradation DC50
T1 construct: These cells express endogenous STAT6; host or cells: HeLa LgBiT clone 4.14
T1 sequence (P42226 1-847): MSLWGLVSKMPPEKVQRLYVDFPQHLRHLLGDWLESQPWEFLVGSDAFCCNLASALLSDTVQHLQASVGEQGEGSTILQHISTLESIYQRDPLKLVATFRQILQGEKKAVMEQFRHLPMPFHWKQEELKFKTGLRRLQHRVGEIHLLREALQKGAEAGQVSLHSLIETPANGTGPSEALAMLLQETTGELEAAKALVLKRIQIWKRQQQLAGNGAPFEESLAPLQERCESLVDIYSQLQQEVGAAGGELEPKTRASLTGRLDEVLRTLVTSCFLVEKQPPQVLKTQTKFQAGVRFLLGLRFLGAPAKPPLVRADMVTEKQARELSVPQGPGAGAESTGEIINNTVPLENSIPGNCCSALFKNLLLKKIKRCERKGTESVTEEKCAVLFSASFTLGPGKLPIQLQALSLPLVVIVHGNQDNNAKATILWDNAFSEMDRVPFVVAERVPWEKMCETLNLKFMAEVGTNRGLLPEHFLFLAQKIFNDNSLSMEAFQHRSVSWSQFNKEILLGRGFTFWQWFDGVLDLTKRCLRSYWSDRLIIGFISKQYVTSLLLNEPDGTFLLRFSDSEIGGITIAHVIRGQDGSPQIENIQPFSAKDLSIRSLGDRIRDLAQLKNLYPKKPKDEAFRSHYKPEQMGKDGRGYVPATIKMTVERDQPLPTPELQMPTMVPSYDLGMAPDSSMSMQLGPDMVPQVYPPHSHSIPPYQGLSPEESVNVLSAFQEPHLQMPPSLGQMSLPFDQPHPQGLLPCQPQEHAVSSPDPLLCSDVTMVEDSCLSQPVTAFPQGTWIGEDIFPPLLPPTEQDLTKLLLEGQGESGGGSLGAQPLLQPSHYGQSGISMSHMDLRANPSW
Method in brief: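 Luminescence from HiBiT-STAT6 complementing stably expressed LgBiT in HeLa clone 4.14 reports remaining STAT6 protein. Cells (5000/well) exposed to compound for 4-24 h at 37° C; read 0.5 h after Nano-Glo addition. 100% degradation window set with 50 μM terfenadine; percent degradation plotted against concentration.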

Compound	EC50 [1]	DC50 [2]
CNc1cc(=O)n(-c2ccnc3c2cc([C@H](C)N2CC=C(c4c(C)cc(C(=O)N5CCC(CN6CCN(Cc7ccc8c(c7)C(C)(C)C(=O)N8[C@H]7CCC(=O)NC7=O)C[C@@H]6C)CC5)cc4F)CC2)n3C)cc1F (single isomer, unassigned) [Example 3u173]	7.8 nM	3.1 nM
CNc1ccn(-c2ccnc3c2cc(CN2CCC(c4c(F)cc(C(=O)N5CCC(CN6CCN(Cc7ccc8c(c7)n(C7CC7)c(=O)n8C7CCC(=O)NC7=O)C[C@@H]6C)CC5)cc4F)CC2)n3C)c(=O)c1 (stereo partly drawn) [Example 3u216, 3-(3-cyclopropyl-5-(((S)-4-((1-(3,5-difluoro-4-(1-((1-methyl-4-(4-(methylamino)-2-oxopyridin-1 (2H)-yl)-1H-pyrrolo[2,3-b]pyridin-2-yl)methyl)piperidin-4-yl)benzoyl)piperidin-4-yl)-methyl)-3-methylpiperazin-1-yl)methyl)-2-oxo-2,3-dihydro-1H-benzo[d]imidazol-1-yl)piperidine-2,6-dione]	1.5 nM	3.5 nM
CNc1cc(=O)n(-c2ccnc3c2cc([C@H](C)N2CC=C(c4c(F)cc(C(=O)N5CCC(CN6CCN(Cc7ccc8c(c7)n(C7CC7)c(=O)n8C7CCC(=O)NC7=O)C[C@@H]6C)CC5)cc4F)CC2)n3C)cc1F (stereo partly drawn) [Example 3u128, 3-(3-cyclopropyl-5-(((S)-4-((1-(3,5-difluoro-4-(1-((S)-1-(4-(5-fluoro-4-(methylamino)-2-oxopyridin-1 (2H)-yl)-1-methyl-1H-pyrrolo[2,3-b]pyridin-2-yl)ethyl)-1,2,3,6-tetrahydropyridin-4-yl)benzoyl)piperidin-4-yl)methyl)-3-methylpiperazin-1-yl)methyl)-2-oxo-2,3-dihydro-1H-benzo[d]imidazol-1-yl)piperidine-2,6-dione]	1.6 nM	1.1 nM
Cc1cc(C(=O)N2CCC(CN3CCN(Cc4ccc5c(c4)n(C4CC4)c(=O)n5C4CCC(=O)NC4=O)CC3)CC2)cc(F)c1C1=CCN([C@@H](C)c2cc3c(-n4ccc5c(c4=O)CCN5)ccnc3n2C)CC1 (stereo partly drawn) [Example 3u140, 3-(3-cyclopropyl-5-((4-((1-(3-fluoro-5-methyl-4-(1-((S)-1-(1-methyl-4-(4-oxo-1,2,3,4-tetrahydro-5H-pyrrolo[3,2-c]pyridin-5-yl)-1H-pyrrolo[2,3-b]pyridin-2-yl)ethyl)-1,2,3,6-tetrahydropyridin-4-yl)benzoyl)piperidin-4-yl)methyl)piperazin-1-yl)methyl)-2-oxo-2,3-dihydro-1H-benzo[d]imidazol-1-yl)piperidine-2,6-dione]	1 nM	1.4 nM
Cc1cc(C(=O)N2CCC(CN3CCN(Cc4ccc5c(c4)n(C)c(=O)n5[C@@H]4CCC(=O)NC4=O)C[C@@H]3C)CC2)cc(F)c1C1=CCN(Cc2cc3c(-n4ccc5c(c4=O)CCN5)ccnc3n2C)CC1 (single isomer, unassigned) [Example 3u25]	1 nM	1.3 nM
CNc1ccn(-c2ccnc3c2cc(CN2CCC(c4c(C)cc(C(=O)N(C)c5ccc(C6CCN(Cc7ccc8c(c7)n(C)c(=O)n8C7CCC(=O)NC7=O)CC6)cc5)cc4F)CC2)n3C)c(=O)c1 (centres unmarked) [Example 3u248, N-(4-(1-((1-(2,6-dioxopiperidin-3-yl)-3-methyl-2-oxo-2,3-dihydro-1H-benzo[d]imidazol-5-yl)methyl)piperidin-4-yl)phenyl)-3-fluoro-N,5-dimethyl-4-(1-((1-methyl-4-(4-(methylamino)-2-oxopyridin-1 (2H)-yl)-1H-pyrrolo[2,3-b]pyridin-2-yl)methyl)piperidin-4-yl)benzamide]	0.3 nM	0.2 nM
CNc1cc(=O)n(-c2ccnc3c2cc([C@H](C)N2CC=C(c4c(C)cc(C(=O)N(C)c5ccc(N6CCC(Cc7ccc8c(c7)n(C)c(=O)n8C7CCC(=O)NC7=O)CC6)nc5)cc4F)CC2)n3C)cc1F (stereo partly drawn) [Example 3u241, N-(6-(4-((1-(2,6-dioxopiperidin-3-yl)-3-methyl-2-oxo-2,3-dihydro-1H-benzo[d]-imidazol-5-yl)methyl)piperidin-1-yl)pyridin-3-yl)-3-fluoro-4-(1-((S)-1-(4-(5-fluoro-4-(methylamino)-2-oxopyridin-1 (2H)-yl)-1-methyl-1H-pyrrolo[2,3-b]pyridin-2-yl)ethyl)-1,2,3,6-tetrahydropyridin-4-yl)-N,5-dimethylbenzamide]	0.2 nM	0.1 nM
CNc1ccn(-c2ccnc3c2cc([C@H](C)N2CCC(c4ccc(C(=O)N5CCC(CN6CCN(Cc7ccc8c(c7)C7(CC7)C(=O)N8C7CCC(=O)NC7=O)C[C@@H]6C)CC5)cc4)CC2)n3C)c(=O)c1 (mixture of isomers) [Example 3u5, 3-(5′-(((S)-3-methyl-4-((1-(4-(1-((S)-1-(1-methyl-4-(4-(methylamino)-2-oxopyridin-1 (2H)-yl)-1H-pyrrolo[2,3-b]pyridin-2-yl)ethyl)piperidin-4-yl)benzoyl)piperidin-4-yl)methyl)piperazin-1-yl)-methyl)-2′-oxospiro[cyclopropane-1,3′-indolin]-1′-yl)piperidine-2,6-dione]	0.8 nM	1 nM
CNc1cc(=O)n(-c2ccnc3c2cc(CN2CC=C(c4c(F)cc(C(=O)N5CCC(CN6CCN(Cc7ccc8c(c7)n(C)c(=O)n8[C@@H]7CCC(=O)NC7=O)C[C@@H]6C)CC5)cc4F)CC2)n3C)cc1F (single isomer, unassigned) [Example 3u55]	3.1 nM	7.6 nM
CNc1ccn(-c2ccnc3c2cc([C@H](C)N2CCC(c4ccc(C(=O)N5CCC(CN6CCN(Cc7ccc8c(c7)n(C)c(=O)n8C7CCC(=O)NC7=O)C[C@@H]6C)CC5)cc4)CC2)n3C)c(=O)c1 (stereo partly drawn) [Example 3e39, 3-(3-methyl-5-(((S)-3-methyl-4-((1-(4-(1-((S)-1-(1-methyl-4-(4-(methylamino)-2-oxopyridin-1 (2H)-yl)-1H-pyrrolo[2,3-b]pyridin-2-yl)ethyl)piperidin-4-yl)benzoyl)piperidin-4-yl)methyl)piperazin-1-yl)methyl)-2-oxo-2,3-dihydro-1H-benzo[d]imidazol-1-yl)piperidine-2,6-dione]	0.5 nM	0.5 nM
CNc1ccn(-c2ccnc3c2cc(CN2CC=C(c4c(C)cc(C(=O)N5CCC(CN6CCN(Cc7ccc8c(c7)C(C)(C)C(=O)N8[C@H]7CCC(=O)NC7=O)C[C@@H]6C)CC5)cc4F)CC2)n3C)c(=O)c1 (single isomer, unassigned) [Example 3u179]	12.4 nM	6.1 nM
CNc1nc(=O)n(-c2ccnc3c2cc([C@H](C)N2CC=C(c4c(C)cc(C(=O)N5CCC(CN6CCN(Cc7ccc8c(c7)C7(CC7)C(=O)N8C7CCC(=O)NC7=O)C[C@@H]6C)CC5)cc4F)CC2)n3C)cc1F (stereo partly drawn) [Example 3u102, 3-(5′-(((S)-4-((1-(3-fluoro-4-(1-((S)-1-(4-(5-fluoro-4-(methylamino)-2-oxopyrimidin-1 (2H)-yl)-1-methyl-1H-pyrrolo[2,3-b]pyridin-2-yl)ethyl)-1,2,3,6-tetrahydropyridin-4-yl)-5-methylbenzoyl)piperidin-4-yl)methyl)-3-methylpiperazin-1-yl)methyl)-2′-oxospiro[cyclopropane-1,3′-indolin]-1′-yl)piperidine-2,6-dione]	1.9 nM	3.4 nM
Cc1cc(C(=O)N(C)c2ccc(C3CCN(Cc4ccc5c(c4)n(C)c(=O)n5C4CCC(=O)NC4=O)CC3)cc2)cc(F)c1C1=CCN([C@@H](C)c2cc3c(-n4ccc5c(c4=O)CCN5)ccnc3n2C)CC1 (stereo partly drawn) [Example 3u250, N-(4-(1-((1-(2,6-dioxopiperidin-3-yl)-3-methyl-2-oxo-2,3-dihydro-1H-benzo[d]imidazol-5-yl)methyl)piperidin-4-yl)phenyl)-3-fluoro-N,5-dimethyl-4-(1-((S)-1-(1-methyl-4-(4-oxo-1,2,3,4-tetrahydro-5H-pyrrolo[3,2-c]pyridin-5-yl)-1H-pyrrolo[2,3-b]pyridin-2-yl)ethyl)-1,2,3,6-tetrahydropyridin-4-yl)benzamide]	0.4 nM	0.1 nM
